Data as given in ChEMBL document CHEMBL4420076, “Amylin and calcitonin receptor agonist” (2017).
Numbered stars: 1 amine (or outer) side, 2 acyl side, 3 side chain; on linkers, the order of the positions; unused ones are H or OH. Side chains are listed from the residue outwards. Peptide text beside a SMILES is read from it. * marks the point of attachment. C20 diacid = O=C(O)CCCCCCCCCCCCCCCCCCC(=O)*; C18 diacid = O=C(O)CCCCCCCCCCCCCCCCC(=O)*; C16 diacid = O=C(O)CCCCCCCCCCCCCCC(=O)*; γGlu = O=C(O)[C@H](CCC(=O)[*:2])N[*:1]

Key:
Rattus norvegicus [1] = experiment: Reduction in food intake in Sprague-Dawley rat at 3 nmol/kg measured 0 to 24 hrs post dose relative to control; assay type: functional; parameters: scale not given: the % may be the effect or the level left
Rattus norvegicus [2] = experiment: Reduction in food intake in Sprague-Dawley rat at 3 nmol/kg measured 24 to 48 hrs post dose relative to control; assay type: functional; parameters: scale not given: the % may be the effect or the level left
[3] = biological target: T1, Amylin receptor AMY3; CALCR/RAMP3 (Homo sapiens, UniProt O60896+P30988); experiment: Agonist activity at human amylin receptor expressed in BHK570 cells co-expressing RAMP3 assessed as increase in intracellular cAMP concentration incubated for 3 hrs in absence of albumin by CRE luciferase reporter gene assay; assay type: functional, cell-based
T1 sequence (P30988 whole entry): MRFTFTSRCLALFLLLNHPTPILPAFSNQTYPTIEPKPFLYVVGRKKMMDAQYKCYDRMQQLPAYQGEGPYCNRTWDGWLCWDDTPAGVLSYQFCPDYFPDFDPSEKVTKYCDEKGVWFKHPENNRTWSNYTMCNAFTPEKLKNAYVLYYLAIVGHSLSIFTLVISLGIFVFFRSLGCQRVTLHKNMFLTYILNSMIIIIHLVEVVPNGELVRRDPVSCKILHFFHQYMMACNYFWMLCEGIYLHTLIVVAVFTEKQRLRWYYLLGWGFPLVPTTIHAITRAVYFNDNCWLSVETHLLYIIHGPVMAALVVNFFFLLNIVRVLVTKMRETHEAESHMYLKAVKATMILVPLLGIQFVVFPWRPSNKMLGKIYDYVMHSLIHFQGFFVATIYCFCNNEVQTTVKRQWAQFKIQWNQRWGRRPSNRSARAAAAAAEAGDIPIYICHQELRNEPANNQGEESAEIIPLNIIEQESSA
T1 sequence (O60896 whole entry): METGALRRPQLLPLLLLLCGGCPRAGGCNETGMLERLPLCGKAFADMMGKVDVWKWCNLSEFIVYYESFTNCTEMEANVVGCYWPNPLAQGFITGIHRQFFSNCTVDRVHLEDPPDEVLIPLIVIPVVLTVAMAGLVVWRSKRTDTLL

Calcitonin receptor [4] = biological target: T2, Calcitonin receptor (Homo sapiens, UniProt P30988); experiment: Agonist activity at human calcitonin receptor expressed in BHK570 cells assessed as increase in intracellular cAMP concentration incubated for 3 hrs in absence of albumin by CRE luciferase reporter gene assay; assay type: functional, cell-based
T2 sequence (P30988 whole entry): T1 sequence (P30988 whole entry)

Calcitonin receptor [5] = biological target: T2, Calcitonin receptor; experiment: Agonist activity at human calcitonin receptor expressed in BHK570 cells assessed as increase in intracellular cAMP concentration incubated for 3 hrs in presence of 10% FBS by CRE luciferase reporter gene assay; assay type: functional, cell-based
[6] = Stability in pH 7.5 buffer assessed as lag time for fibril formation at 1 uM by Thioflavin T based fluorescence assay; assay type: physicochemical; settings: pH 7.5, 1 µM
[7] = Stability in pH 7.5 buffer assessed as compound recovery at 1 uM by Thioflavin T based fluorescence assay; assay type: physicochemical; settings: read-out: Drug recovery
[8] = Solubility in 100 mM glycylglycine buffer at pH 3.0 incubated for 18 hrs by UPLC analysis; assay type: physicochemical
[9] = Solubility in 100 mM glycylglycine buffer at pH 4.0 incubated for 18 hrs by UPLC analysis; assay type: physicochemical
[10] = Solubility in 100 mM glycylglycine buffer at pH 5.0 incubated for 18 hrs by UPLC analysis; assay type: physicochemical
[11] = Solubility in 100 mM bistrispropane buffer at pH 7.5 incubated for 18 hrs by UPLC analysis; assay type: physicochemical
[12] = Solubility in 100 mM bistrispropane buffer at pH 8.0 incubated for 18 hrs by UPLC analysis; assay type: physicochemical
[13] = biological target: T1, Amylin receptor AMY3; CALCR/RAMP3; experiment: Displacement of [125I]-labeled rat amylin from human amylin receptor expressed in BHK tkts13 whole cells co-expressing RAMP3 incubated for 60 mins by scintillation proximity assay; assay type: cell-based
Calcitonin receptor [14] = biological target: T2, Calcitonin receptor; experiment: Displacement of [125I]-labeled human calcitonin from human calcitonin receptor expressed in BHK tkts13 whole cells incubated for 60 mins by scintillation proximity assay; assay type: cell-based
[15] = Solubility in 100 mM bistrispropane buffer at pH 6.0 incubated for 18 hrs by UPLC analysis; assay type: physicochemical
[16] = Solubility in 100 mM bistrispropane buffer at pH 6.5 incubated for 18 hrs by UPLC analysis; assay type: physicochemical
[17] = Solubility in 100 mM bistrispropane buffer at pH 7.0 incubated for 18 hrs by UPLC analysis; assay type: physicochemical
[18] = biological target: T1, Amylin receptor AMY3; CALCR/RAMP3; experiment: Agonist activity at human amylin receptor expressed in BHK570 cells co-expressing RAMP3 assessed as increase in intracellular cAMP concentration incubated for 3 hrs in presence of 10% FBS by CRE luciferase reporter gene assay; assay type: functional, cell-based

| EC50 [3] [pM] | EC50 (Calcitonin receptor [4]) [pM] | EC50 (Calcitonin receptor [5]) [pM] | Time [6] [h] | remaining at 1 µM [7] [%] | solubility at 18 h [8] [µM] | solubility at 18 h [9] [µM] | solubility at 18 h [10] [µM] | solubility at 18 h [11] [µM] | solubility at 18 h [12] [µM] | IC50 [13] [pM] | IC50 (Calcitonin receptor [14]) [pM] | solubility at 18 h [15] [µM] | solubility at 18 h [16] [µM] | solubility at 18 h [17] [µM] | EC50 [18] [pM] | Compound | Activity (Rattus norvegicus [1]) [%] | Activity (Rattus norvegicus [2]) [%] |
| --- | --- | --- | --- | --- | --- | --- | --- | --- | --- | --- | --- | --- | --- | --- | --- | --- | --- | --- |
| 68 | 36 | 113 | 0.3 | 0 | ≥ 200 | ≥ 200 | ≥ 200 | ≥ 200 | ≥ 200 | 5440 | 1270 |  |  |  |  | CC(C)C[C@H](NC(=O)CNC(=O)[C@H](CO)NC(=O)[C@H](C)N)C(=O)N[C@@H](CO)C(=O)N[C@H](C(=O)N[C@@H](C)C(=O)N[C@@H](C)C(=O)N[C@@H](CC(C)C)C(=O)NCC(=O)N[C@@H](CCCNC(=N)N)C(=O)N[C@@H](CC(C)C)C(=O)N[C@@H](CO)C(=O)N[C@@H](CCC(N)=O)C(=O)N[C@@H](CCC(=O)O)C(=O)N[C@@H](CC(C)C)C(=O)N[C@@H](Cc1cnc[nH]1)C(=O)N[C@@H](CCC(=O)O)C(=O)N[C@@H](CC(C)C)C(=O)N[C@@H](CCC(N)=O)C(=O)N[C@H](C(=O)N[C@@H](Cc1ccc(O)cc1)C(=O)N1CCC[C@H]1C(=O)N[C@@H](CCCNC(=N)N)C(=O)N[C@H](C(=O)N[C@@H](CCC(=O)O)C(=O)N[C@H](C(=O)NCC(=O)N[C@@H](CO)C(=O)N[C@@H](CCCCNC(=O)CC[C@H](NC(=O)CCCCCCCCCCCCCCCCCCC(=O)O)C(=O)O)C(=O)N[C@H](C(=O)N[C@@H](Cc1ccc(O)cc1)C(N)=O)[C@@H](C)O)[C@@H](C)O)[C@@H](C)O)[C@@H](C)O)[C@@H](C)O (H-ASGLSTAALGRLSQELHELQTYPRTETGSK([γGlu-C20 diacid])TY-NH2) | 4 | -5 |
| 8 | 4 |  |  |  | ≥ 200 | ≥ 200 | ≥ 200 | ≥ 200 | ≥ 200 | 498 | 413 | ≥ 200 | ≥ 200 | ≥ 200 |  | CC(C)C[C@H](NC(=O)[C@H](C)NC(=O)[C@H](C)NC(=O)[C@@H](NC(=O)[C@H](CO)NC(=O)[C@H](CC(C)C)NC(=O)[C@H](CCC(=O)O)NC(=O)[C@H](CO)NC(=O)[C@H](C)NC(=O)[C@H](CCC(=O)O)NC(=O)CCCCCCCCCCCCCCC(=O)O)[C@@H](C)O)C(=O)NCC(=O)N[C@@H](CCCNC(=N)N)C(=O)N[C@@H](CC(C)C)C(=O)N[C@@H](CO)C(=O)N[C@@H](C)C(=O)N[C@@H](CCC(=O)O)C(=O)N[C@@H](CC(C)C)C(=O)N[C@@H](Cc1cnc[nH]1)C(=O)N[C@@H](CCC(=O)O)C(=O)N[C@@H](CC(C)C)C(=O)N[C@@H](C)C(=O)N[C@H](C(=O)N[C@@H](CC(C)C)C(=O)N1CCC[C@H]1C(=O)N[C@@H](CCCNC(=N)N)C(=O)N[C@H](C(=O)N[C@@H](CCC(=O)O)C(=O)N[C@H](C(=O)NCC(=O)N1CCC[C@H]1C(=O)N[C@@H](CCC(=O)O)C(=O)N[C@@H](CO)C(=O)N1CCC[C@H]1C(N)=O)[C@@H](C)O)[C@@H](C)O)[C@@H](C)O ({C16 diacid}-EASELSTAALGRLSAELHELATLPRTETGPESP-NH2) | 63 | 9 |
| 10 | 7 |  |  |  | ≥ 200 | ≥ 200 | ≥ 200 | ≥ 200 | ≥ 200 | 352 | 309 | ≥ 200 | ≥ 200 | ≥ 200 |  | CC(C)C[C@H](NC(=O)[C@H](CCC(=O)O)NC(=O)[C@H](Cc1cnc[nH]1)NC(=O)[C@H](CC(C)C)NC(=O)[C@H](CCC(=O)O)NC(=O)[C@H](C)NC(=O)[C@H](CO)NC(=O)[C@H](CC(C)C)NC(=O)[C@H](CCCNC(=N)N)NC(=O)CNC(=O)[C@H](CC(C)C)NC(=O)[C@@H](NC(=O)[C@H](C)NC(=O)[C@@H](NC(=O)[C@H](CO)NC(=O)[C@H](CC(C)C)NC(=O)[C@H](CCC(=O)O)NC(=O)[C@@H]1CCCN1C(=O)[C@H](C)NC(=O)[C@H](CCC(=O)O)NC(=O)CCCCCCCCCCCCCCCCC(=O)O)[C@@H](C)O)C(C)C)C(=O)N[C@@H](C)C(=O)N[C@H](C(=O)N[C@@H](CC(C)C)C(=O)N1CCC[C@H]1C(=O)N[C@@H](CCCNC(=N)N)C(=O)N[C@H](C(=O)N[C@@H](CCC(=O)O)C(=O)N[C@H](C(=O)NCC(=O)N1CCC[C@H]1C(=O)N[C@@H](CCC(=O)O)C(=O)N[C@@H](CO)C(=O)N1CCC[C@H]1C(N)=O)[C@@H](C)O)[C@@H](C)O)[C@@H](C)O ({C18 diacid}-EAPELSTAVLGRLSAELHELATLPRTETGPESP-NH2) | 52 | 0 |
| 27 | 18 | 22 |  |  | ≥ 200 | ≥ 200 | ≥ 200 | ≥ 200 | ≥ 200 | 608 | 442 | ≥ 200 | ≥ 200 | ≥ 200 | 185 | CC(C)C[C@H](NC(=O)[C@H](C)NC(=O)[C@H](C)NC(=O)[C@@H](NC(=O)[C@H](CO)NC(=O)[C@H](CC(C)C)NC(=O)[C@H](CCC(=O)O)NC(=O)[C@H](CO)NC(=O)[C@H](C)NC(=O)CC[C@H](NC(=O)CCCCCCCCCCCCCCCCCCC(=O)O)C(=O)O)[C@@H](C)O)C(=O)NCC(=O)N[C@@H](CCCNC(=N)N)C(=O)N[C@@H](CC(C)C)C(=O)N[C@@H](CO)C(=O)N[C@@H](C)C(=O)N[C@@H](CCC(=O)O)C(=O)N[C@@H](CC(C)C)C(=O)N[C@@H](Cc1cnc[nH]1)C(=O)N[C@@H](CCC(=O)O)C(=O)N[C@@H](CC(C)C)C(=O)N[C@@H](C)C(=O)N[C@H](C(=O)N[C@@H](CC(C)C)C(=O)N1CCC[C@H]1C(=O)N[C@@H](Cc1cnc[nH]1)C(=O)N[C@H](C(=O)N[C@@H](CCC(=O)O)C(=O)N[C@H](C(=O)NCC(=O)N[C@@H](CO)C(=O)NCC(=O)N[C@@H](CO)C(=O)N1CCC[C@H]1C(N)=O)[C@@H](C)O)[C@@H](C)O)[C@@H](C)O ({C20 diacid-γGlu}-ASELSTAALGRLSAELHELATLPHTETGSGSP-NH2) | 55 | 62 |
